Measured values published in patent US20250163038A1, “CBL-B MODULATORS AND USES THEREOF” (Nimbus Clio, Inc., priority 2021, published 2025).

Experiments:
[1] = tested on: Jurkat (clone E6-1) cells with NFAT luciferase reporter; assay: Jurkat reporter assay (NFAT Luciferase); format: cell-based; conditions: Homo sapiens; Jurkat NFAT luciferase reporter cells, anti-CD3 stimulation, 6 hr; read-out: Jurkat NFAT EC50
[2] = molecular target: Recombinant human Cbl-b (aa 36-427) (Homo sapiens, UniProt Q13191); assay: Cbl-b Biochemical Assay (TR-FRET); conditions: read-out: TR-FRET hCbl-b IC50
Chain of Recombinant human Cbl-b (aa 36-427) (Q13191 36-427): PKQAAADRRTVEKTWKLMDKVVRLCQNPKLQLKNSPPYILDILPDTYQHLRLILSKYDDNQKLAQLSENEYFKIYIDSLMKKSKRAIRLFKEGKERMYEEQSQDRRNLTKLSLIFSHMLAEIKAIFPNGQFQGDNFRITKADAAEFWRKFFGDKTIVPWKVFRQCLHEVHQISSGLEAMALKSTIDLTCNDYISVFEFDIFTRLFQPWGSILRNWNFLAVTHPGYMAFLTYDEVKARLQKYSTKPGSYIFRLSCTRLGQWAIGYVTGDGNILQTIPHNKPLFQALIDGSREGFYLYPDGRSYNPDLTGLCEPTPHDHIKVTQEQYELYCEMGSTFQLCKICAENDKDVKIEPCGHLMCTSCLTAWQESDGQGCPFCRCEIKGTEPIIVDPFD

[3] = molecular target: T1, Recombinant human c-Cbl (aa 47-435) (Homo sapiens, UniProt P22681); assay: c-Cbl Biochemical Assay (TR-FRET); conditions: hc-Cbl Biochemical Assay (TR-FRET); read-out: TR-FRET hcCbl IC50
T1 sequence (P22681 47-435): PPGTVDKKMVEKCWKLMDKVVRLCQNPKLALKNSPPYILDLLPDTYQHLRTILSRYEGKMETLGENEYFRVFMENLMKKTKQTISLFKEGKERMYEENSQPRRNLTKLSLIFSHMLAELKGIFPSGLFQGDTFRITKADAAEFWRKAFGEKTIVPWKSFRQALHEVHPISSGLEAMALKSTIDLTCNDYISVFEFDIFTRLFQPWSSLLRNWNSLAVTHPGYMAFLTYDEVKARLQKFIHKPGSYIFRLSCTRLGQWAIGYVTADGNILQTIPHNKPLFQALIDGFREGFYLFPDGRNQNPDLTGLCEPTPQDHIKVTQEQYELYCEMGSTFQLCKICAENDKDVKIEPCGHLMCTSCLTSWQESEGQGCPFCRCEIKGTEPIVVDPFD

EC50 [1] [nM]	IC50 [2] [nM]	IC50 [3] [nM]	Compound
< 200	< 200	< 200	Cn1cnnc1-c1cc(F)ccc1-c1cccc(-c2nc3cc(CN[C@H]4CC[C@@H]4O)cc(C(F)(F)F)c3o2)c1 (racemic) [ADF-2, (1R,2R)-2-[({2-[4′-Fluoro-2′-(4-methyl-1,2,4-triazol-3-yl)-[1,1′-biphenyl]-3-yl]-7-(trifluoromethyl)-1,3-benzoxazol-5-yl}methyl)amino]cyclobutan-1-ol]
200 to 1000	< 200	1000 to 10000	Cn1cnnc1-c1cc(F)ccc1-c1cccc(-c2nc3cc(CN4CCC5(CC4)CC5)cc(C(F)(F)F)c3[nH]2)c1 [BU-1, 5-((6-Azaspiro[2.5]octan-6-yl)methyl)-2-(4′-fluoro-2′-(4-methyl-4H-1,2,4-triazol-3-yl)-[1,1′-biphenyl]-3-yl)-7-(trifluoromethyl)-1H-benzo[d]imidazole]
< 200	< 200	< 200	COc1cc(CNCC2(O)CCC2)cc2nc(-c3cccc(-c4ccc(F)cc4-c4nncn4C)c3)oc12 [GA-1, 1-((((2-(4′-Fluoro-2′-(4-methyl-4H-1,2,4-triazol-3-yl)-[1,1′-biphenyl]-3-yl)-7-methoxybenzo[d]oxazol-5-yl)methyl)amino)methyl)cyclobutan-1-ol]
< 200	< 200	< 200	Cn1cnnc1-c1cc(Cl)ccc1-c1cc(-c2nc3cc(CNCC4(O)CCC4)cc(F)c3o2)nc(C2CC2)c1 [AHI-5, 1-({[(2-{4-[4-chloro-2-(4-methyl-1,2,4-triazol-3-yl)phenyl]-6-cyclopropylpyridin-2-yl}-7-fluoro-1,3-benzoxazol-5-yl)methyl]amino}methyl)cyclobutan-1-ol]
< 200	< 200	< 200	CN(Cc1cc(C(F)(F)F)c2oc(-c3cc(-c4ccc(F)cc4-c4nncn4C)cc(C4CC4)n3)nc2c1)[C@@H]1CCC[C@@H]1O [AEW-1, (1S, 2R)-2-{1[(2-{6-Cyclopropyl-4-[4-fluoro-2-(4-methyl-1,2,4-triazol-3-yl)phenyl]pyridin-2-yl}-7-(trifluoromethyl)-1,3-benzoxazol-5-yl)methyl](methyl)amino}cyclopentan-1-ol]
< 200	< 200	< 200	Cn1cnnc1-c1cc(F)ccc1-c1cccc(-c2nc3cc(CNCC4(C)CCC4)cc(C(F)(F)F)c3o2)c1 [HK-2, 1-(2-(4′-Fluoro-2′-(4-methyl-4H-1,2,4-triazol-3-yl)-[1,1′-biphenyl]-3-yl)-7-(trifluoromethyl)benzo[d]oxazol-5-yl)-N-((1-methylcyclobutyl)methyl)methanamine]
200 to 1000	< 200	200 to 1000	CN(Cc1cc(C(F)(F)F)c2oc(-c3cccc(-c4ccc(F)cc4-c4nncn4C)c3)nc2c1)CC1CCC1 [IE-1, 1-Cyclobutyl-N-((2-(4′-fluoro-2′-(4-methyl-4H-1,2,4-triazol-3-yl)-[1,1′-biphenyl]-3-yl)-7-(trifluoromethyl)benzo[d]oxazol-5-yl)methyl)-N-methylmethanamine]
< 200	< 200	< 200	Cn1cnnc1-c1cc(F)ccc1-c1cccc(-c2nc3cc(CNCC(C)(C)F)cc(C(F)(F)F)c3o2)c1 [DA-1, 2-Fluoro-N-((2-(4′-fluoro-2′-(4-methyl-4H-1,2,4-triazol-3-yl)-[1,1′-biphenyl]-3-yl)-7-(trifluoromethyl)benzo[d]oxazol-5-yl)methyl)-2-methylpropan-1-amine]
< 200	< 200	< 200	CC(C)CCNCc1cc(C(F)(F)F)c2oc(-c3cccc(-c4ccc(F)cc4-c4nncn4C)c3)nc2c1 [FO-2, N-((2-(4′-Fluoro-2′-(4-methyl-4H-1,2,4-triazol-3-yl)-[1,1′-biphenyl]-3-yl)-7-(trifluoromethyl)benzo[d]oxazol-5-yl)methyl)-3-methylbutan-1-amine]
200 to 1000	< 200	200 to 1000	COCCNCc1cc(C)c2oc(-c3cccc(-c4ccc(F)cc4-c4nncn4C)c3)nc2c1 [GV-1, N-((2-(4′-Fluoro-2′-(4-methyl-4H-1,2,4-triazol-3-yl)-[1,1′-biphenyl]-3-yl)-7-methylbenzo[d]oxazol-5-yl)methyl)-2-methoxyethan-1-amine]
200 to 1000	< 200	200 to 1000	Cn1cnnc1-c1cc(F)ccc1-c1cccc(-c2nc3cc(CNCC4(C#N)CCOCC4)cc(C(F)(F)F)c3o2)c1 [DY-1, 4-((((2-(4′-Fluoro-2′-(4-methyl-4H-1,2,4-triazol-3-yl)-[1,1′-biphenyl]-3-yl)-7-(trifluoromethyl)benzo[d]oxazol-5-yl)methyl)amino)methyl)tetrahydro-2H-pyran-4-carbonitrile]
< 200	< 200	< 200	CO[C@@H](C)CNCc1cc(C)c2oc(-c3cc(-c4ccc(F)cc4-c4nncn4C)cc(C4CC4)n3)nc2c1 [AHF-1, [(2-{6-cyclopropyl-4-[4-fluoro-2-(4-methyl-1,2,4-triazol-3-yl)phenyl]pyridin-2-yl}-7-methyl-1,3-benzoxazol-5-yl)methyl][(2S)-2-methoxypropyl]amine]
1000 to 10000	< 200	1000 to 10000	Cn1cnnc1-c1cc(F)ccc1-c1cccc(-c2nc3cc(CN4CCC5(CC5)C4)cc(C(F)(F)F)c3o2)c1 [AAL-5, 5-((5-Azaspiro[2.4]heptan-5-yl)methyl)-2-(4′-fluoro-2′-(4-methyl-4H-1,2,4-triazol-3-yl)-[1,1′-biphenyl]-3-yl)-7-(trifluoromethyl) benzo[d]oxazole]
200 to 1000	< 200	< 200	CO[C@H](C)CNCc1cc(F)c2oc(-c3cc(-c4ccc(F)cc4-c4nncn4C)cc(C4CC4)n3)nc2c1 [AFN-2, [(2-{6-Cyclopropyl-4-[4-fluoro-2-(4-methyl-1,2,4-triazol-3-yl)phenyl]pyridin-2-yl}-7-fluoro-1,3-benzoxazol-5-yl)methyl][(2R)-2-methoxypropyl]amine]
< 200	< 200	< 200	Cn1cnnc1-c1cc(Cl)ccc1-c1cccc(-c2nc3cc(CN[C@@H]4CCC[C@@H]4O)ccc3o2)c1 [ADL-2, (1S,2R)-2-[({2-[4′-Chloro-2′-(4-methyl-1,2,4-triazol-3-yl)-[1,1′-biphenyl]-3-yl]-1,3-benzoxazol-5-yl}methyl)amino]cyclopentan-1-ol]
1000 to 10000	200 to 1000	10000 to 50000	Cn1cnnc1-c1ccccc1-c1cccc(-c2nc3cc(CN4CCC5(CC5)C4)cc(C(F)(F)F)c3[nH]2)c1 [ACF-1, 5-((5-Azaspiro[2.4]heptan-5-yl)methyl)-2-(2′-(4-methyl-4H-1,2,4-triazol-3-yl)-[1,1′-biphenyl]-3-yl)-7-(trifluoromethyl)-1H-benzo[d]imidazole]

Compound	EC50 [1] [nM]	IC50 [2] [nM]	IC50 [3] [nM]
C[C@H]1CCCN(Cc2ccc3oc(-c4cc(-c5ccc(C#N)cc5-c5nncn5C)cc(C5CC5)n4)nc3c2)C1 [AGG-2, 4-[2-Cyclopropyl-6-(5-{[(3S)-3-methylpiperidin-1-yl]methyl}-1,3-benzoxazol-2-yl)pyridin-4-yl]-3-(4-methyl-1,2,4-triazol-3-yl)benzonitrile]	200 to 1000	< 200	200 to 1000
